This passage reports Kd results from doi:10.1101/2024.10.09.24315180v1, “Schizandrin A suppressed pancreatic cancer proliferation and cancer associated fibroblast activation via inhibiting the COX-2/ALOX5 shunting” (medrxiv, 2024).

One assay addresses T1, COX-2 (Homo sapiens, UniProt P35354).
T1 construct: gene PTGS2; immobilised on CM5 chip
T1 sequence (P35354 18-604): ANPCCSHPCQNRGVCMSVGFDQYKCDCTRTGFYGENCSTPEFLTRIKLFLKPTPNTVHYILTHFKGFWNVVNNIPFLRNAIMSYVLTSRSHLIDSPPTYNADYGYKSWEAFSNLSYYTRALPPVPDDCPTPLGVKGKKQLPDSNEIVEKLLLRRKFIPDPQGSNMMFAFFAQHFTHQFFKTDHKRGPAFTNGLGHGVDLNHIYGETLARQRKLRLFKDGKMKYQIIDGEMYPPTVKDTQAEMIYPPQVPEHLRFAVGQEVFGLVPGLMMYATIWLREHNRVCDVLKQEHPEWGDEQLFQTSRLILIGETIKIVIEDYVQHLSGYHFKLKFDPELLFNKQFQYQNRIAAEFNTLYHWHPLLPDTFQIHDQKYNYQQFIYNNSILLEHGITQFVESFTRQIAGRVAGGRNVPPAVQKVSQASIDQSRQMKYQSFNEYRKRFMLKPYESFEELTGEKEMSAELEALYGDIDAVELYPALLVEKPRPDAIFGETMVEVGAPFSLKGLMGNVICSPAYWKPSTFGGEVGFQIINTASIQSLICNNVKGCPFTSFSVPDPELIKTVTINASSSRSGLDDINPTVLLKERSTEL
Description: SPR, Biacore T200, CM5 chip, multi-cycle. The format is binding. (In general: In SPR one partner is held on a chip, and binding of the other changes the refractive index at the surface.)

For a further assay, the target named is T2, ALOX5 (Homo sapiens, UniProt P09917).
T2 construct: immobilised on CM5 chip
T2 sequence (P09917 1-674): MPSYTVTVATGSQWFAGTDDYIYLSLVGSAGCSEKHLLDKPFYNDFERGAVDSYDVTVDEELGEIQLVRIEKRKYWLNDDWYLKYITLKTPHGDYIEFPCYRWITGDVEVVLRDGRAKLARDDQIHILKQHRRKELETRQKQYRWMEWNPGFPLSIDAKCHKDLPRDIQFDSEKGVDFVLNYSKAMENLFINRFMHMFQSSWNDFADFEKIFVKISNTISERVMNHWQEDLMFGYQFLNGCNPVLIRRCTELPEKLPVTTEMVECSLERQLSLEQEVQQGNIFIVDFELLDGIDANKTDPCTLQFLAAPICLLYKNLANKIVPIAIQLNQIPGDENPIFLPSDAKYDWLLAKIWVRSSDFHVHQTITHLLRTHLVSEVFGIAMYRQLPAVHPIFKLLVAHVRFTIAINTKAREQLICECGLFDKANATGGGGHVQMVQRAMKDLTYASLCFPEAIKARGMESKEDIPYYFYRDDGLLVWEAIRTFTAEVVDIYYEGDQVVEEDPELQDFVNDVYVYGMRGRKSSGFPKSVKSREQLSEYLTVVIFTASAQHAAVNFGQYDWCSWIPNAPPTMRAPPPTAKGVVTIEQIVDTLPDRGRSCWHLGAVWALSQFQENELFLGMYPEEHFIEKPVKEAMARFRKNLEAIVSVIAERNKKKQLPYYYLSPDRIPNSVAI
Description: SPR, Biacore T200, CM5 chip, multi-cycle. The format is binding.

Consider `COc1cc2c(c(OC)c1OC)-c1c(cc(OC)c(OC)c1OC)C[C@H](C)[C@H](C)C2` [Schizandrin A], for which the figures for the Kd at COX-2 and on ALOX5 were 14.8 µM and 21.8 µM, respectively.
